Where two headings read alike, the source gives them in different places.
Columns and labels:
[1] = target: KHK-C expressed in NRK-52E cells (Homo sapiens (Human), UniProt P50053); experiment: KHK-C Cell-based Assay (EC50), NRK CTG, fructose-mediated ATP-depletion
Method: Compounds were tested in a high-throughput 384-well assay format for their ability to attenuate fructose-mediated ATP-depletion in Normal Rat Kidney epithelial cells (NRK-52E) using the Cell-Titer Glo (CTG) assay, which measures cellular ATP levels based on luminescence signal by using the luciferase-luciferin system. Compounds were serially diluted (1:3) in DMSO.
The plates were incubated at 37° C., 5% CO2 for one day. Cells were then transduced on day 2 with 200 MOI of Adenovirus (VQAd KHKC C-(K)-DYK ViraQuest Inc.) using the same medium and method as day-1 to induce KHK-C expression in the cells. Cells were incubated at 37° C., 5% CO2 for one day. On day-3, the medium was changed to DMEM medium (Corning, Catalog #10-014-CM) with 0.5% FBS and Penicillin-Streptomycin after washing the cells twice with sterile PBS on the BioTEK EL406 washer and dispenser. Test compounds were then diluted 200-fold into the assay plates using the BioMek FX and were incubated for 1 hour at 37° C., 5% CO2. 25 mM (final concentration) of fructose was then dispensed into the plates using the BioTEK EL406 dispenser and the plates were incubated at 37° C., 5% CO2 for 48 hours before addition of CTG reagent and measurement of luminescence signal.

human KHK-A = human KHK-A (Homo sapiens (Human), UniProt P50053); experiment: KHK Biochemical Assay (IC50), ADP-Glo, KHK-A; details: average of at least two separate assays
Outline: (§1)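 ADP-Glo luminescence measured ADP made over a 4 h room-temperature reaction of ATP plus fructose, started after 30 min compound–enzyme pre-incubation. Buffer: 50 mM Hepes pH 7.4, 140 mM KCl, 5 mM MgCl2, 0.01% Triton-X. Enzyme was His-tagged, BL21 (DE3)-expressed, Ni-NTA-purified; compounds in 1:3 DMSO dilution series.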

human KHK-C = human KHK-C (Homo sapiens (Human), UniProt P50053); experiment: KHK Biochemical Assay (IC50), ADP-Glo, KHK-C; details: average of at least two separate assays
Outline: as §1

Sequence of human KHK-A (P50053 other isoform, or with tags, fused parts or gaps): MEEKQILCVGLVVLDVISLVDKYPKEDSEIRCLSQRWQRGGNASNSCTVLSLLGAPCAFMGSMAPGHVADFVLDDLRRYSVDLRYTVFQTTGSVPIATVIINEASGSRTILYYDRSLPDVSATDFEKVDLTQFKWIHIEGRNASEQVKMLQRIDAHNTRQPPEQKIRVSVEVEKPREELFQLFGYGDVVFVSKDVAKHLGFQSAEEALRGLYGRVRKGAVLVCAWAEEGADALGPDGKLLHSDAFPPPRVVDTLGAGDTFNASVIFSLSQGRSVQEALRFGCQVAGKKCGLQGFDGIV
Sequence of KHK-C expressed in NRK-52E cells (P50053 whole entry): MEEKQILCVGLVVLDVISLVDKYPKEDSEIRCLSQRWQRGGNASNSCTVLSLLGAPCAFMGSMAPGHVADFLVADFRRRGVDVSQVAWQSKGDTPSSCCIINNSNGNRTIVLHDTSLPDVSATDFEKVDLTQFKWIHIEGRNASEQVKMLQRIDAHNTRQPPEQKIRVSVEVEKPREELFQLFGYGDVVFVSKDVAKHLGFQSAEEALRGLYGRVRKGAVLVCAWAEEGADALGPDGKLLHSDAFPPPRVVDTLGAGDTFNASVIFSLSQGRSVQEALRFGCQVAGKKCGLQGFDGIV
Sequence of human KHK-C (P50053 whole entry): as above

Row | Compound | EC50 [1] | IC50 (human KHK-A; ADP-Glo) | IC50 (human KHK-C; ADP-Glo) | IC50 (human KHK-C) | EC50 ([1]; read-out: NRK CTG EC50, NRK-52E cells, Cell-Titer Glo, 25 mM fructose) | IC50 (human KHK-A)
1 | CC(=O)N1C[C@H](C(=O)O)[C@@H](c2cccc(-c3nc(N4CC[C@@H]4C)nc4c3CCC4)c2)C1 (mixture of isomers) [Example 145, (3R,4S)-1-acetyl-4-(3-(2-((S)-2-methylazetidin-1-yl)-6,7-dihydro-5H-cyclopenta[d]pyrimidin-4-yl)phenyl)pyrrolidine-3-carboxylic acid] | > 5000 nM | 83.7 nM | 125 nM | – | – | –
2 | C[C@H]1CCN1c1nc2c(c(-c3ccc4c(c3)[C@]3(C[C@H]3C(N)=O)C(=O)N4)n1)CCC2 (mixture of isomers) [Example 412, rac-(1R,2R)-5′-(2-((S)-2-methylazetidin-1-yl)-6,7-dihydro-5H-cyclopenta[d]pyrimidin-4-yl)-2′-oxospiro[cyclopropane-1,3′-indoline]-2-carboxamide] | 406 nM | – | – | 29.2 nM | – | 57.3 nM
3 | COC(=O)[C@@H]1C[C@@]12C(=O)Nc1ccc(-c3nc(N4CC[C@@H]4C)nc4c3CCC4)cc12 (racemic) [Example 406, rac-methyl (1R,2R)-5′-(2-((S)-2-methylazetidin-1-yl)-6,7-dihydro-5H-cyclopenta[d]pyrimidin-4-yl)-2′-oxospiro[cyclopropane-1,3′-indoline]-2-carboxylate] | 397 nM | – | – | 1040 nM | – | 841 nM
4 | COC(=O)[C@H]1C[C@@]12C(=O)Nc1ccc(-c3nc(N4CC[C@@H]4C)nc4c3CCC4)cc12 (racemic) [Example 407, rac-methyl (1R,2S)-5′-(2-((S)-2-methylazetidin-1-yl)-6,7-dihydro-5H-cyclopenta[d]pyrimidin-4-yl)-2′-oxospiro[cyclopropane-1,3′-indoline]-2-carboxylate] | 506 nM | – | – | 229 nM | – | 235 nM
5 | C[C@H]1CCN1c1nc2c(c(-c3ccc4c(c3)[C@]3(C[C@H]3C(=O)O)C(=O)N4)n1)CCC2 (racemic) [Example 408, rac-(1R,2R)-5′-(24(8)-2-methylazetidin-1-yl)-6,7-dihydro-5H-cyclopenta[d]pyrimidin-4-yl)-2′-oxospiro[cyclopropane-1,3′-indoline]-2-carboxylic acid] | > 5000 nM | – | – | 100 nM | – | 158 nM
6 | C[C@H]1CCN1c1nc2c(c(-c3ccc4c(c3)[C@]3(C[C@@H]3C(=O)O)C(=O)N4)n1)CCC2 (racemic) [Example 409, rac-(1R,28)-5′-(24(8)-2-methylazetidin-1-yl)-6,7-dihydro-5H-cyclopenta[d]pyrimidin-4-yl)-2′-oxospiro[cyclopropane-1,3′-indoline]-2-carboxylic acid] | > 5000 nM | – | – | 34.3 nM | – | 41 nM
7 | CC(=O)N1C[C@H](C(N)=O)[C@@H](c2cccc(-c3nc(N4CC[C@@H]4C)nc4c3CCC4)c2)C1 (relative stereo) [Example 146, (3R*,4S*)-1-acetyl-4-(3-(2-((S)-2-methylazetidin-1-yl)-6,7-dihydro-5H-cyclopenta[d]pyrimidin-4-yl)phenyl)pyrrolidine-3-carboxamide] | 423 nM | 118 nM | 116 nM | – | – | –
8 | C[C@H]1[C@H](C(N)=O)CN1c1nc2c(c(-c3ccc(C(N)=O)cc3)n1)CCC2 (relative stereo) [Example 266, (rac)-(2S*,3R*)-1-(4-(4-carbamoylphenyl)-6,7-dihydro-5H-cyclopenta[d]pyrimidin-2-yl)-2-methylazetidine-3-carboxamide] | > 5000 nM | > 5000 nM | > 5000 nM | – | – | –
9 | C[C@H](NS(C)(=O)=O)c1ccc(-c2nc(N3C[C@@H](O)[C@@H]3C)nc3c2CCC3(F)F)cc1 [Example 744, N-[(1S)-1-[4-[7,7-difluoro-2-[(2S,3R)-3-hydroxy-2-methyl-azetidin-1-yl]-5,6-dihydrocyclopenta[d]pyrimidin-4-yl]phenyl]ethyl]methanesulfonamide] | 142 nM | – | – | 17.2 nM | – | –
10 | C[C@H](NS(C)(=O)=O)c1cccc(-c2nc(N3C[C@@H](O)[C@@H]3C)nc3c2CCC3(F)F)c1 [Example 745, N-[(1S)-1-[3-[7,7-difluoro-2-[(2S,3R)-3-hydroxy-2-methyl-azetidin-1-yl]-5,6-dihydrocyclopenta[d]pyrimidin-4-yl]phenyl]ethyl]methanesulfonamide] | 162 nM | – | – | 25.4 nM | – | –
11 | C[C@H]1CCN1c1nc(-c2cc(F)c3c(c2)OCCNC3=O)c2c(n1)C(F)(F)CC2 [Example 747, 8-[7,7-difluoro-2-[(2S)-2-methylazetidin-1-yl]-5,6-dihydrocyclopenta[d]pyrimidin-4-yl]-6-fluoro-3,4-dihydro-2H-1,4-benzoxazepin-5-one] | 15.1 nM | – | – | 6.1 nM | – | –
12 | C[C@@H](NS(C)(=O)=O)c1ccc(-c2nc(N3CC[C@@H]3C)nc3c2CCC3(F)F)cc1 [Example 748, N-[(1R)-1-[4-[7,7-difluoro-2-[(2S)-2-methylazetidin-1-yl]-5,6-dihydrocyclopenta[d]pyrimidin-4-yl]phenyl]ethyl]methanesulfonamide] | 85.9 nM | – | – | 23.2 nM | – | –
13 | C[C@@H](NS(C)(=O)=O)c1cccc(-c2nc(N3CC[C@@H]3C)nc3c2CCC3(F)F)c1 [Example 749, N-[(1R)-1-[3-[7,7-difluoro-2-[(2S)-2-methylazetidin-1-yl]-5,6-dihydrocyclopenta[d]pyrimidin-4-yl]phenyl]ethyl]methanesulfonamide] | 69.7 nM | – | – | 18.8 nM | – | –
14 | C[C@H]1CCN1c1nc2c(c(-c3ccc(C(N)=O)cn3)n1)CCC2 [Example 752, 6-[2-[(2S)-2-methylazetidin-1-yl]-6,7-dihydro-5H-cyclopenta[d]pyrimidin-4-yl]pyridine-3-carboxamide] | 223 nM | – | – | 79.2 nM | – | –
15 | C[C@H]1CCN1c1nc2c(c(-c3ccc4c(c3)NCCNC4=O)n1)CCC2 [Example 753, 8-[2-[(2S)-2-methylazetidin-1-yl]-6,7-dihydro-5H-cyclopenta[d]pyrimidin-4-yl]-1,2,3,4-tetrahydro-1,4-benzodiazepin-5-one] | 33.1 nM | – | – | 10.7 nM | – | –
16 | C[C@H]1CCN1c1nc(-c2ccc3c(c2)OCCC3NS(C)(=O)=O)c2c(n1)C(F)(F)CC2 (stereo partly drawn) [Example 759, N-[7-[7,7-difluoro-2-[(2S)-2-methylazetidin-1-yl]-5,6-dihydrocyclopenta[d]pyrimidin-4-yl]chroman-4-yl]methanesulfonamide] | 6.9 nM | – | – | 2.3 nM | – | –

Continued, in another order:

Row | EC50 [1] | IC50 (human KHK-A; ADP-Glo) | IC50 (human KHK-C; ADP-Glo) | IC50 (human KHK-C) | EC50 ([1]; read-out: NRK CTG EC50, NRK-52E cells, Cell-Titer Glo, 25 mM fructose) | Compound | IC50 (human KHK-A)
17 | 47.5 nM | – | – | 40.8 nM | – | C[C@H]1CCN1c1nc2c(c(-c3ccc4c(c3)[C@]3(C[C@H]3C#N)C(=O)N4)n1)CCC2 (mixture of isomers) [Example 410, rac-(1R,2R)-5′-(2-((S)-2-methylazetidin-1-yl)-6,7-dihydro-5H-cyclopenta[d]pyrimidin-4-yl)-2′-oxospiro[cyclopropane-1,3′-indoline]-2-carbonitrile] | 37.6 nM
18 | 473 nM | – | – | 117 nM | – | C[C@H]1CCN1c1nc2c(c(-c3ccc4c(c3)[C@]3(C[C@@H]3C#N)C(=O)N4)n1)CCC2 (mixture of isomers) [Example 411, rac-(1R,2S)-5′-(2-((S)-2-methylazetidin-1-yl)-6,7-dihydro-5H-cyclopenta[d]pyrimidin-4-yl)-2′-oxospiro[cyclopropane-1,3′-indoline]-2-carbonitrile] | 66.3 nM
19 | 750 nM | – | – | 74.4 nM | – | C[C@H]1CCN1c1nc2c(c(-c3ccc4c(c3)[C@]3(C[C@@H]3C(N)=O)C(=O)N4)n1)CCC2 (mixture of isomers) [Example 413, rac-(1R,2S)-5′-(2-((S)-2-methylazetidin-1-yl)-6,7-dihydro-5H-cyclopenta[d]pyrimidin-4-yl)-2′-oxospiro[cyclopropane-1,3′-indoline]-2-carboxamide] | 65.4 nM
20 | 100 nM | 216 nM | 90.3 nM | – | – | C[C@H]1CCN1c1nc2c(c(-c3ccc4c(c3)C[C@@H]3[C@@H](C(N)=O)[C@H]43)n1)CCC2 (relative stereo) [Example 137, (1R,1aR*,6aS*)-4-(2-((S)-2-methylazetidin-1-yl)-6,7-dihydro-5H-cyclopenta[d]pyrimidin-4-yl)-1,1a,6,6a-tetrahydrocyclopropa[a]indene-1-carboxamide] | –
21 | 1800 nM | 294 nM | 220 nM | – | – | C[C@H]1CCN1c1nc2c(c(-c3ccc4c(c3)C[C@@H]3[C@H](C(N)=O)[C@H]43)n1)CCC2 (relative stereo) [Example 138, (1S,1aR*,6aS*)-4-(2-((S)-2-methylazetidin-1-yl)-6,7-dihydro-5H-cyclopenta[d]pyrimidin-4-yl)-1,1a,6,6a-tetrahydrocyclopropa[a]indene-1-carboxamide] | –
22 | 14.8 nM | – | – | 9 nM | – | C[C@H](NS(C)(=O)=O)c1ccc(-c2nc(N3CC[C@@H]3C)nc3c2CCC3(F)F)cc1 [Example 750, N-[(1S)-1-[4-[7,7-difluoro-2-[(2S)-2-methylazetidin-1-yl]-5,6-dihydrocyclopenta[d]pyrimidin-4-yl]phenyl]ethyl]methanesulfonamide] | –
23 | 17.9 nM | – | – | 10.8 nM | – | C[C@H](NS(C)(=O)=O)c1cccc(-c2nc(N3CC[C@@H]3C)nc3c2CCC3(F)F)c1 [Example 751, N-[(1S)-1-[3-[7,7-difluoro-2-[(2S)-2-methylazetidin-1-yl]-5,6-dihydrocyclopenta[d]pyrimidin-4-yl]phenyl]ethyl]methanesulfonamide] | –
24 | – | – | – | 23.6 nM | 193 nM | (1S)-1-[4-[7,7-difluoro-2-[(2S)-2-methylazetidin-1-yl]-5,6-dihydrocyclopenta[d]pyrimidin-4-yl]phenyl]-2,2-difluoro-ethanamine [Example 652] | –
